Patent US10532995B2, “Substituted pyrazole compounds as serine protease inhibitors” (VERSEON CORPORATION, priority 2015, dated 2020)

Target: T1, Human thrombin (Homo sapiens, UniProt P00734)
T1 construct: purchased Haematologic Technologies Inc
Experiment: Thrombin protease activity inhibition, chromogenic substrate S-2238
Assay type: biochemical
Conditions: 3 nM thrombin, 125 μM S-2238, 10 min pre-incubation, RT
Protocol: The thrombin activity reported herein (e.g., Table A) was obtained as follows. […] Thrombin was assayed in buffer containing 0.05 M Tris (pH 7.4), 0.015 M NaCl and 0.01% PEG-8000. The final concentration of enzyme used was 3 nM thrombin. […] All assays were performed in 96-well microtiter plates at room temperature (RT). […] Inhibitor IC50 values were determined by adding test compound as ten point, three-fold serial dilutions in buffer solution, as known in the art. The plate was read at 10 minutes after substrate addition. The IC50 was calculated by plotting the percent (%) inhibition against compound concentration and fitting the data to a constrained four parameter sigmoidal curve, as known in the art.

SMILES	IC50
C=CCOC(=O)N1CCN(C(=O)N2CCOCC2)CC1c1cc(NCc2ccc(Cl)s2)n(C(=O)C(C)(C)C)n1 (stereo not shown) [Entry 244, prop-2-en-1-yl 2-(5-[(5-chlorothiophen-2-yl)methyl]amino-1-(2,2-dimethylpropanoyl)-1H-pyrazol-3-yl)-4-(morpholine-4-carbonyl)piperazine-1-carboxylate]	1000 to 10000 nM
C=CCOC(=O)N1CCCC1c1cc(NCc2ccc(Cl)s2)n(C(=O)C(C)(C)C)n1 (stereo not shown) [Entry 247, prop-2-en-1-yl 2-(5-[(5-chlorothiophen-2-yl)methyl]amino-1-(2,2-dimethylpropanoyl)-1H-pyrazol-3-yl)pyrrolidine-1-carboxylate]	< 100 nM
CC1(c2cc(NCc3ccc(Cl)s3)n(C(=O)c3ccsc3)n2)CCNC1=O (stereo not shown) [Entry 124, 3-(5-[(5-chlorothiophen-2-yl)methyl]amino-1-(thiophene-3-carbonyl)-1H-pyrazol-3-yl)-3-methylpyrrolidin-2-one]	100 to 1000 nM
C=CCOC(=O)N1CCC(c2nn(C(=O)C(C)(C)C)c(NCc3ccc(Cl)s3)c2C)CC1 [Entry 264, prop-2-en-1-yl 4-(5-[(5-chlorothiophen-2-yl)methyl]amino-1-(2,2-dimethylpropanoyl)-4-methyl-1H-pyrazol-3-yl)piperidine-1-carboxylate]	< 100 nM
CC1(C(=O)n2nc(C3CCCNC3)cc2NCc2ccc(Cl)s2)CCOCC1 (stereo not shown) [Entry 164, N-[(5-chlorothiophen-2-yl)methyl]-1-(4-methyloxane-4-carbonyl)-3-(piperidin-3-yl)-1H-pyrazol-5-amine]	100 to 1000 nM
CS(=O)(=O)N1C2CCC1CC(c1cc(NCc3ccc(Cl)s3)n(C(=O)c3cscn3)n1)C2 (stereo not shown) [Entry 225, N-[(5-chlorothiophen-2-yl)methyl]-3-8-methanesulfonyl-8-azabicyclo[3.2.1]octan-3-yl-1-(1,3-thiazole-4-carbonyl)-1H-pyrazol-5-amine]	< 100 nM
Cc1c(C2CCN(C(=O)OC(C)(C)C)CC2)n[nH]c1NCc1ccc(Cl)s1 [Entry 303, tert-butyl 4-(5-[(5-chlorothiophen-2-yl)methyl]amino-4-methyl-1H-pyrazol-3-yl)piperidine-1-carboxylate]	> 100000 nM
Clc1ccc(CNc2cc(C3CCN(Cc4nnn[nH]4)CC3)n[nH]2)s1 [Entry 195, N-[(5-chlorothiophen-2-yl)methyl]-3-[1-(1H-1,2,3,4-tetrazol-5-ylmethyl)piperidin-4-yl]-1H-pyrazol-5-amine]	1000 to 10000 nM
Clc1ccc(CNc2cc(C3CCN(Cc4ncon4)CC3)n[nH]2)s1 [Entry 191, N-[(5-chlorothiophen-2-yl)methyl]-3-[1-(1,2,4-oxadiazol-3-ylmethyl)piperidin-4-yl]-1H-pyrazol-5-amine]	> 100000 nM
COc1ccccc1C(=O)n1nc(C2(C)CCCNC2)cc1NCc1ccc(Cl)s1 (stereo not shown) [Entry 153, N-[(5-chlorothiophen-2-yl)methyl]-1-(2-methoxybenzoyl)-3-(3-methylpiperidin-3-yl)-1H-pyrazol-5-amine]	1000 to 10000 nM
CC(C)(C)OC(=O)N1CCCC(c2cc(NCc3ccc(Cl)s3)n(C(=O)c3ccsc3)n2)C1 (stereo not shown) [Entry 289, tert-butyl 3-(5-[(5-chlorothiophen-2-yl)methyl]amino-1-(thiophene-3-carbonyl)-1H-pyrazol-3-yl)piperidine-1-carboxylate]	< 100 nM
CC1(C(=O)n2nc(C3CCOCC3)c(F)c2NCc2ccc(Cl)s2)CCOCC1 [Entry 229, N-[(5-chlorothiophen-2-yl)methyl]-4-fluoro-1-(4-methyloxane-4-carbonyl)-3-(oxan-4-yl)-1H-pyrazol-5-amine]	< 100 nM
CC(C)(C)C(=O)N1CCC(c2cc(NCc3ccc(Cl)s3)n(C(=O)c3ccsc3)n2)CC1 [Entry 101, 1-[4-(5-[(5-chlorothiophen-2-yl)methyl]amino-1-(thiophene-3-carbonyl)-1H-pyrazol-3-yl)piperidin-1-yl]-2,2-dimethylpropan-1-one]	< 100 nM
COc1ccccc1C(=O)n1nc(C2(C)CCN(C(=O)OC(C)(C)C)CC2)cc1NCc1ccc(Cl)s1 [Entry 294, tert-butyl 4-(5-[(5-chlorothiophen-2-yl)methyl]amino-1-(2-methoxybenzoyl)-1H-pyrazol-3-yl)-4-methylpiperidine-1-carboxylate]	< 100 nM
O=C(CN1CCC(c2cc(NCc3ccc(Cl)s3)[nH]n2)CC1)N1CCOCC1 [Entry 111, 2-[4-(5-[(5-chlorothiophen-2-yl)methyl]amino-1H-pyrazol-3-yl)piperidin-1-yl]-1-(morpholin-4-yl)ethan-1-one]	> 100000 nM
CS(=O)(=O)N1CCC(c2cc(NCc3ccc(Cl)s3)[nH]n2)C1 (stereo not shown) [Entry 175, N-[(5-chlorothiophen-2-yl)methyl]-3-(1-methanesulfonylpyrrolidin-3-yl)-1H-pyrazol-5-amine]	> 100000 nM
CC(C)(C)C(=O)n1nc(C2(C)CCCNC2=O)cc1NCc1ccc(Cl)s1 (stereo not shown) [Entry 115, 3-(5-[(5-chlorothiophen-2-yl)methyl]amino-1-(2,2-dimethylpropanoyl)-1H-pyrazol-3-yl)-3-methylpiperidin-2-one]	100 to 1000 nM
Clc1ccc(CNc2cc(C3CCN(Cc4cnn[nH]4)CC3)n[nH]2)s1 [Entry 196, N-[(5-chlorothiophen-2-yl)methyl]-3-[1-(1H-1,2,3-triazol-5-ylmethyl)piperidin-4-yl]-1H-pyrazol-5-amine]	> 100000 nM

Next, values leading:

IC50	SMILES
1000 to 10000 nM	COc1ccccc1C(=O)n1nc(C2(C)CCNCC2)cc1NCc1ccc(Cl)s1 [Entry 154, N-[(5-chlorothiophen-2-yl)methyl]-1-(2-methoxybenzoyl)-3-(4-methylpiperidin-4-yl)-1H-pyrazol-5-amine]
< 100 nM	C=CCOC(=O)N1CCC(c2nn(C(=O)C(C)(C)C)c(NCc3ccc(Cl)s3)c2F)CC1 [Entry 263, prop-2-en-1-yl 4-(5-[(5-chlorothiophen-2-yl)methyl]amino-1-(2,2-dimethylpropanoyl)-4-fluoro-1H-pyrazol-3-yl)piperidine-1-carboxylate]
1000 to 10000 nM	C=CCOC(=O)N1CCC(c2n[nH]c(NCc3ccc(Cl)s3)c2C#N)CC1 [Entry 268, prop-2-en-1-yl 4-(5-[(5-chlorothiophen-2-yl)methyl]amino-4-cyano-1H-pyrazol-3-yl)piperidine-1-carboxylate]
< 100 nM	COc1ccccc1C(=O)n1nc(C2CCN(C(=O)OC(C)(C)C)CC2)cc1NCc1ccc(Cl)s1 [Entry 295, tert-butyl 4-(5-[(5-chlorothiophen-2-yl)methyl]amino-1-(2-methoxybenzoyl)-1H-pyrazol-3-yl)piperidine-1-carboxylate]
1000 to 10000 nM	Clc1ccc(CNc2cc(C3CCNC3)n[nH]2)s1 (stereo not shown) [Entry 190, N-[(5-chlorothiophen-2-yl)methyl]-3-(pyrrolidin-3-yl)-1H-pyrazol-5-amine]
< 100 nM	COc1ccccc1C(=O)n1nc(C2CCCO2)cc1NCc1ccc(Cl)s1 (stereo not shown) [Entry 156, N-[(5-chlorothiophen-2-yl)methyl]-1-(2-methoxybenzoyl)-3-(oxolan-2-yl)-1H-pyrazol-5-amine]
> 100000 nM	CS(=O)(=O)N1CCCC1c1cc(NCc2ccc(Cl)s2)[nH]n1 (stereo not shown) [Entry 174, N-[(5-chlorothiophen-2-yl)methyl]-3-(1-methanesulfonylpyrrolidin-2-yl)-1H-pyrazol-5-amine]
100 to 1000 nM	CC1(c2cc(NCc3ccc(Cl)s3)n(C(=O)c3ccsc3)n2)CCCNC1=O (stereo not shown) [Entry 123, 3-(5-[(5-chlorothiophen-2-yl)methyl]amino-1-(thiophene-3-carbonyl)-1H-pyrazol-3-yl)-3-methylpiperidin-2-one]
> 100000 nM	Clc1ccc(CNc2cc(C3CCCN3)n[nH]2)s1 (stereo not shown) [Entry 189, N-[(5-chlorothiophen-2-yl)methyl]-3-(pyrrolidin-2-yl)-1H-pyrazol-5-amine]
> 100000 nM	C=CCOC(=O)N1CCCC(c2cc(NCc3ccc(Cl)s3)[nH]n2)CC1 (stereo not shown) [Entry 265, prop-2-en-1-yl 4-(5-[(5-chlorothiophen-2-yl)methyl]amino-1H-pyrazol-3-yl)azepane-1-carboxylate]
100 to 1000 nM	CC1(c2cc(NCc3ccc(Cl)s3)n(C(=O)c3ccsc3)n2)CCCNC1 (stereo not shown) [Entry 178, N-[(5-chlorothiophen-2-yl)methyl]-3-(3-methylpiperidin-3-yl)-1-(thiophene-3-carbonyl)-1H-pyrazol-5-amine]
> 100000 nM	Clc1ccc(CNc2cc(C3CCN(Cc4ncco4)CC3)n[nH]2)s1 [Entry 193, N-[(5-chlorothiophen-2-yl)methyl]-3-[1-(1,3-oxazol-2-ylmethyl)piperidin-4-yl]-1H-pyrazol-5-amine]
> 100000 nM	O=C(CN1CCOCC1)N1CCC(c2cc(NCc3ccc(Cl)s3)[nH]n2)CC1 [Entry 103, 1-[4-(5-[(5-chlorothiophen-2-yl)methyl]amino-1H-pyrazol-3-yl)piperidin-1-yl]-2-(morpholin-4-yl)ethan-1-one]
< 100 nM	CC(C)(C)OC(=O)N1CCCC(C)(c2cc(NCc3ccc(Cl)s3)n(C(=O)C(C)(C)C)n2)C1 (stereo not shown) [Entry 278, tert-butyl 3-(5-[(5-chlorothiophen-2-yl)methyl]amino-1-(2,2-dimethylpropanoyl)-1H-pyrazol-3-yl)-3-methylpiperidine-1-carboxylate]
100 to 1000 nM	COc1ccccc1C(=O)n1nc(C2CCCN2C(=O)C(C)(C)C)cc1NCc1ccc(Cl)s1 (stereo not shown) [Entry 90, 1-[2-(5-[(5-chlorothiophen-2-yl)methyl]amino-1-(2-methoxybenzoyl)-1H-pyrazol-3-yl)pyrrolidin-1-yl]-2,2-dimethylpropan-1-one]
> 100000 nM	CS(=O)(=O)N1CCCC(c2cc(NCc3ccc(Cl)s3)[nH]n2)CC1 (stereo not shown) [Entry 171, N-[(5-chlorothiophen-2-yl)methyl]-3-(1-methanesulfonylazepan-4-yl)-1H-pyrazol-5-amine]
